One test addresses human recombinant cRAF (Homo sapiens, UniProt P04049). Nature of the test: cRAF Inhibition Assay (TR-FRET). The format is biochemical. The protocol: (§1) Activity of human recombinant cRAF were assessed in vitro using time-resolved fluorescence resonance energy transfer (TR-FRET) assay. The assay was performed according to the kit instructions. Briefly, the cRAF enzyme (BPS Bioscience, cat #40008) was diluted to 0.027 ng/μL using the 1× kinase buffer A (Life Tech, cat #PV6135, 5× dilution with H2O); the Fluorescein labeled-MAP2K1 (Life Tech, Cat #PV4812) was diluted to 0.5 μM; ATP (Life Tech, cat #PV3227) was diluted to 20 μM; 2.54, of each diluted reagent was added to a 384-well plate (PerkinElmer, ProxiPlate-384 Plus, 6008280) and mixed together; 2.54, serial diluted compound were added into the mixture. 104, 400-fold diluted LanthaScreen Tb-pMAP2K1 (pSer217/221) antibody (Life Tech, cat #PV4817) was then added to each kinase reaction. The reactions were incubated at Room Temperature for 1 hour. The plate was then read on PHERAstar FSX using 340/490/520 module. Inhibition data were calculated by comparison to vehicle control wells for 0% inhibition and non-stimulated control wells for 100% inhibition. Dose response curves were then generated to determine the concentration required to suppress 50% of enzymatic response (IC50) as derived by non-linear regression analysis using GraphPad Prism.

The next test has as its target T1, human recombinant BRAF (Homo sapiens, UniProt P15056).
T1 construct: purchased BPS Bioscience 40065
Nature of the test: BRAF^WT Inhibition Assay (TR-FRET). The format is biochemical. The method, then: as §1, with “BRAF” for “cRAF”, “#40065)” for “#40008)”

Test [1] addresses T2, human recombinant V600E mutant BRAF (Homo sapiens, UniProt P15056, V600E).
T2 construct: purchased BPS Bioscience 40533
Put plainly: BRAF^V600E Inhibition Assay (TR-FRET). It is filed as biochemical. The protocol: Activity of human recombinant V600E mutant BRAF were assessed in vitro using time-resolved fluorescence resonance energy transfer (TR-FRET) assay. The assay was performed according to the kit instructions. Briefly, the V600E mutant BRAF enzyme (BPS Bioscience, cat #40533) was diluted to 0.027 ng/μL using the 1× kinase buffer A (Life Tech, cat #PV6135, 5× dilution with H2O); the Fluorescein labeled-MAP2K1 (Life Tech, Cat #PV4812) was diluted to 0.5 μM; ATP (Life Tech, cat #PV3227) was diluted to 20 μM; 2.5 μl of each diluted reagent was added to a 384-well (PerkinElmer, ProxiPlate-384 Plus, 6008280) plate and mixed together; 2.54, serial diluted compounds were added into the mixture. 104, 400-fold diluted LanthaScreen Tb-pMAP2K1 (pSer217/221) antibody (Life Tech, cat #PV4817) was then added to each kinase reaction. The reactions were incubated at Room Temperature for 1 hour. The plate was then read on PHERAstar FSX using 340/490/520 module. Inhibition data were calculated by comparison to vehicle control wells for 0% inhibition and non-stimulated control wells for 100% inhibition. Dose response curves were then generated to determine the concentration required to suppress 50% of enzymatic response (IC50) as derived by non-linear regression analysis using GraphPad Prism.

Test [2] has as its system NCI-H358 (KRAS^G12C) non-small cell lung cancer cell. Put plainly: NCI-H358 Cancer Cell Growth Inhibition Assay (CellTiter-Glo). It is filed as cell-based, human. The following applies: for GI50: Homo sapiens, 72 h, NCI-H358 cells, incubated for 3 days, CellTiter-Glo. The method, then: Activity of human NCI-H358 (KRAS^G12C) non-small cell lung cancer cell growth inhibition was assessed in vitro using CellTiter-Glo® Luminescent Cell Viability Assay. The assay was performed according to the kit instructions (Promega, cat #G7570). Briefly, NCI-H358 cells (ATCC, #CRL-5807) were seeded in 96-well plates at a density of 2,500 cells/well in and cells were cultured overnight in a humidified, 5% CO2 cell culture incubator at 37° C. 10 μL serial diluted compounds were added into each cell-culture well and incubated for 3 days. 100 μL CellTiter-Glo® Reagent was added into each well. The reactions were incubated at Room Temperature for 10 minutes, and luminescence signals were recorded on a Tecan Luminescence Plate Reader. Inhibition data were calculated by comparison to vehicle control wells for 0% inhibition and non-stimulated control wells for 100% inhibition. Dose response curves were then generated to determine the concentration required to suppress 50% of cellular growth response (GI50) as derived by non-linear regression analysis using GraphPad Prism.
In general terms: In ATP-based viability assays light output follows the ATP content of the culture.

T2 sequence (P15056 whole entry V600E): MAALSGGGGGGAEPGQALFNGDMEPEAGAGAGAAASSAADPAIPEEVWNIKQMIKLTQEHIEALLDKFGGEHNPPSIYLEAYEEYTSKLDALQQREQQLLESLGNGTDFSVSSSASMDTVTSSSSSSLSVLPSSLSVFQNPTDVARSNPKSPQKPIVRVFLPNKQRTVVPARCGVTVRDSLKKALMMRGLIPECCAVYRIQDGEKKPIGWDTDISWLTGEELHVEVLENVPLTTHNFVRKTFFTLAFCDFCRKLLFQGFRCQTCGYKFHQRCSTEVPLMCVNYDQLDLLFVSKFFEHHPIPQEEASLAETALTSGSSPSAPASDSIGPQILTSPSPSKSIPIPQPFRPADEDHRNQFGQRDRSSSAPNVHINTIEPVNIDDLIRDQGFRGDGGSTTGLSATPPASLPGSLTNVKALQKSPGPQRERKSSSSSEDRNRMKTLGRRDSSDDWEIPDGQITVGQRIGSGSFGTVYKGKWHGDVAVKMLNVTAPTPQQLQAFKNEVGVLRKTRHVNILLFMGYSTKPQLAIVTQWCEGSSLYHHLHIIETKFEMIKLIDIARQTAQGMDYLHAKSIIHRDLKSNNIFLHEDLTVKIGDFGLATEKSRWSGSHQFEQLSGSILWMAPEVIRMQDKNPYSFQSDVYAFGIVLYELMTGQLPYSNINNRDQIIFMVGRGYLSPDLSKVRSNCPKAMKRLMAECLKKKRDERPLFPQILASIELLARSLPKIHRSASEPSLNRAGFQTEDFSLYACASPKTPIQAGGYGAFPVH
human recombinant cRAF, sequence (P04049 whole entry Y340D/Y341D, form open): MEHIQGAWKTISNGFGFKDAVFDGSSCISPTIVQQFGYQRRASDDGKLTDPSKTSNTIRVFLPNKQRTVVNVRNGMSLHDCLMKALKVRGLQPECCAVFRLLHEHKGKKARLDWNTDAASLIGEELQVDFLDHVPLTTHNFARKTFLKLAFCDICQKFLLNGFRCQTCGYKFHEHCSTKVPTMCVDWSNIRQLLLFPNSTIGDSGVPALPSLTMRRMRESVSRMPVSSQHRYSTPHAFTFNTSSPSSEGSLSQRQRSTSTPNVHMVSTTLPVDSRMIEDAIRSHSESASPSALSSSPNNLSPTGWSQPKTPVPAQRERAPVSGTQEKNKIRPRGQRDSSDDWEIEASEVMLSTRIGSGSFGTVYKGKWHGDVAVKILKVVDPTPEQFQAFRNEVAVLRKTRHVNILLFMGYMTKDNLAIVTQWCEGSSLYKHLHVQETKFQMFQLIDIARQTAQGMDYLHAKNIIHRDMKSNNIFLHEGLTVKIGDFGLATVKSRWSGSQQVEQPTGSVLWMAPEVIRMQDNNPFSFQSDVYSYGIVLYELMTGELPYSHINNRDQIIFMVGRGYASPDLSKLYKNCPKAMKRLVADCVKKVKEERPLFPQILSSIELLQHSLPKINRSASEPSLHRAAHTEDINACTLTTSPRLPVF
T1 sequence (P15056 whole entry): as the sequence (P15056 whole entry V600E) above, with E600V counted along it

For the molecule `Cc1ccc(NC(=O)c2ccc3c(c2)C(F)(F)CO3)cc1-c1cc(OCCO)nc(N2CCOCC2)c1` [Example 4, 3,3-difluoro-N-(3-(2-(2-hydroxyethoxy)-6-morpholinopyridin-4-yl)-4-methylphenyl)-2,3-dihydrobenzofuran-5-carboxamide], the IC50 on human recombinant cRAF is 51 nM; at human recombinant BRAF, 260 nM; in test [1], 96 nM.
Consider `Cc1ccc(NC(=O)c2ccc3c(c2)OCCO3)cc1-c1cc(OCCO)nc(N2CCOCC2)c1` [Example 13, N-(3-(2-(2-hydroxyethoxy)-6-morpholinopyridin-4-yl)-4-methylphenyl)-2,3-dihydrobenzo[b][1,4]dioxine-6-carboxamide], for which the IC50 at human recombinant cRAF was 4.7 nM; at human recombinant BRAF, 31 nM; in test [1], 13 nM. Moreover, the “cell growth inhibition in H358 cancer line compared to LXH254” value in test [2] is listed as “better or similar cell growth inhibition”. The molecule also registered a GI50 in test [2] of 1200 nM.
As to `Cc1ncc(NC(=O)c2ccc3c(c2)OC(F)(F)O3)cc1-c1cc(OCCO)nc(N2CCOCC2)c1` [Example 11, 2,2-difluoro-N-(2′-(2-hydroxyethoxy)-2-methyl-6′-morpholino-[3,4′-bipyridin]-5-yl)benzo[d][1,3]dioxole-5-carboxamide], the IC50 at human recombinant cRAF was found to be 10 nM; on human recombinant BRAF, 70 nM; in test [1] it was 39 nM.
On to `Cc1ccc(NC(=O)c2ccc3c(c2)OCO3)cc1-c1cc(OCCO)nc(N2CCOCC2)c1` [Example 9, N-(3-(2-(2-hydroxyethoxy)-6-morpholinopyridin-4-yl)-4-methylphenyl)benzo[d][1,3]dioxole-5-carboxamide], for which the IC50 at human recombinant cRAF was 6.7 nM; on human recombinant BRAF, 42 nM; in test [1], 18 nM. Also, in test [2], the “cell growth inhibition in H358 cancer line compared to LXH254” value is “better or similar cell growth inhibition”. The same molecule registered a GI50 in test [2] of 1600 nM.
Consider `Cc1ccc(NC(=O)c2cnc3c(c2)CCC3(F)F)cc1-c1cc(OCCO)nc(N2CCOCC2)c1` [Example 6, 7,7-difluoro-N-(3-(2-(2-hydroxyethoxy)-6-morpholinopyridin-4-yl)-4-methylphenyl)-6,7-dihydro-5H-cyclopenta[b]pyridine-3-carboxamide], for which the IC50 amounted to 3.9 nM on human recombinant cRAF, 26 nM on human recombinant BRAF and 8.4 nM in test [1].
Regarding `Cc1ccc(NC(=O)c2ccc3c(c2)CCC3(F)F)cc1-c1cc(OCCO)nc(N2CCOCC2)c1` [Example 5, 1,1-difluoro-N-(3-(2-(2-hydroxyethoxy)-6-morpholinopyridin-4-yl)-4-methylphenyl)-2,3-dihydro-1H-indene-5-carboxamide], the 50% inhibitory concentration (IC50) on human recombinant cRAF was found to be 39 nM; at human recombinant BRAF, 92 nM; in test [1], 65 nM.
For the molecule `Cc1ccc(NC(=O)c2cnc3c(c2)C(F)(F)CC3)cc1-c1cc(OCCO)nc(N2CCOCC2)c1` [Example 7, 5,5-difluoro-N-(3-(2-(2-hydroxyethoxy)-6-morpholinopyridin-4-yl)-4-methylphenyl)-6,7-dihydro-5H-cyclopenta[b]pyridine-3-carboxamide], the IC50 amounted to 10 nM at human recombinant cRAF, 46 nM on human recombinant BRAF and 18 nM in test [1]. Moreover, the “cell growth inhibition in H358 cancer line compared to LXH254” value in test [2] is on record as “better or similar cell growth inhibition”. Besides, it took 2800 nM to inhibit growth in test [2] by half (GI50).
For `Cc1ccc(NC(=O)c2ccc3c(c2)CC3)cc1-c1cc(OCCO)nc(N2CCOCC2)c1` [Example 2, N-(3-(2-(2-hydroxyethoxy)-6-morpholinopyridin-4-yl)-4-methylphenyl)bicyclo[4.2.0]octa-1(6),2,4-triene-3-carboxamide], the IC50 at human recombinant cRAF was determined as 7.9 nM; at human recombinant BRAF, 38.5 nM; in test [1], 18 nM.
For `Cc1ccc(NC(=O)c2ccc3c(c2)C(F)(F)CC3)cc1-c1cc(OCCO)nc(N2CCOCC2)c1` [Example 3, 3,3-difluoro-N-(3-(2-(2-hydroxyethoxy)-6-morpholinopyridin-4-yl)-4-methylphenyl)-2,3-dihydro-1H-indene-5-carboxamide], the half-inhibitory concentration (IC50) at human recombinant cRAF is 27 nM; at human recombinant BRAF, 170 nM; in test [1], 88 nM.
As to `Cc1ccc(NC(=O)c2cc3c(cn2)OC(F)(F)O3)cc1-c1cc(OCCO)nc(N2CCOCC2)c1` [Example 10, 2,2-difluoro-N-(3-(2-(2-hydroxyethoxy)-6-morpholinopyridin-4-yl)-4-methylphenyl)-[1,3]dioxolo[4,5-c]pyridine-6-carboxamide], the IC50 at human recombinant cRAF turned out to be 25 nM; at human recombinant BRAF it was 95 nM; in test [1], 55 nM. Besides, the “cell growth inhibition in H358 cancer line compared to LXH254” value in test [2] is listed as “better or similar cell growth inhibition”. In test [2], this molecule gave a GI50 of 85 nM.
Turning to `Cc1ccc(NC(=O)c2ccc3c(c2)OC(C)(C)O3)cc1-c1cc(OCCO)nc(N2CCOCC2)c1` [Example 8, N-(3-(2-(2-hydroxyethoxy)-6-morpholinopyridin-4-yl)-4-methylphenyl)-2,2-dimethylbenzo[d][1,3]dioxole-5-carboxamide], the IC50 was determined as 25 nM on human recombinant cRAF, 140 nM at human recombinant BRAF and 62 nM in test [1]. Also, in test [2], the “cell growth inhibition in H358 cancer line compared to LXH254” value is recorded as “better or similar cell growth inhibition”. In addition, growth in test [2] was halved (GI50) at 220 nM.

As usually defined, the IC50 is the concentration that gives 50% inhibition. By GI50 is commonly meant the concentration giving 50% growth inhibition. Read a high GI50 as lower sensitivity of the cells.
